According to PubChem BioAssay AID1963869 (Molecular Pharmacology Branch, DTP, NCI, 2024):
Several values for one entry are separate records, joined by “and”; a condition that tells them apart may be missing. Equal values may be shown once.

Tested on: KRAS patient-derived spheroids with HUVEC/MSC, viability
Experiment: Anticancer human tumor 323965-272-R-J2-PDC patient-derived pancreatic carcinoma cell line growth inhibition [KRAS2]
Conditions: for viability, T/C: stronger effect = lower value
Method in brief: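 Combination screen of spheroid viability in tumor-cell co-cultures with endothelial (HUVEC) and mesenchymal stem cell stroma. Each agent was tested in half-log dilutions, topping at clinical Cmax or at 10 microM without a known Cmax.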

[1] = curve of first compound, second compound 0.1 µM
[2] = curve of first compound, second compound 0.316 µM
[3] = curve of first compound, second compound 1 µM
[4] = curve of first compound, second compound 3.16 µM
[5] = curve of first compound, second compound 10 µM
[6] = second compound 0.1 µM, first compound 0.0316 µM
[7] = second compound 0.1 µM, first compound 0.1 µM
[8] = second compound 0.1 µM, first compound 0.316 µM
[9] = second compound 0.1 µM, first compound 1 µM
[10] = second compound 0.1 µM, first compound 3.16 µM
[11] = second compound 0.316 µM, first compound 0.0316 µM
[12] = second compound 0.316 µM, first compound 0.1 µM
[13] = second compound 0.316 µM, first compound 0.316 µM
[14] = second compound 0.316 µM, first compound 1 µM
[15] = second compound 0.316 µM, first compound 3.16 µM
[16] = second compound 1 µM, first compound 0.0316 µM
[17] = second compound 1 µM, first compound 0.1 µM
[18] = second compound 1 µM, first compound 0.316 µM
[19] = second compound 1 µM, first compound 1 µM
[20] = second compound 1 µM, first compound 3.16 µM
[21] = second compound 3.16 µM, first compound 0.0316 µM
[22] = second compound 3.16 µM, first compound 0.1 µM
[23] = second compound 3.16 µM, first compound 0.316 µM
[24] = second compound 3.16 µM, first compound 1 µM
[25] = second compound 3.16 µM, first compound 3.16 µM
[26] = second compound 10 µM, first compound 0.0316 µM
[27] = second compound 10 µM, first compound 0.1 µM
[28] = second compound 10 µM, first compound 0.316 µM
[29] = second compound 10 µM, first compound 1 µM
[30] = second compound 10 µM, first compound 3.16 µM
[31] = second compound 0.1 µM, first compound 10 µM
[32] = second compound 0.316 µM, first compound 10 µM
[33] = second compound 1 µM, first compound 10 µM
[34] = second compound 3.16 µM, first compound 10 µM
[35] = second compound 10 µM, first compound 10 µM
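Note: spheroids exposed to agents for 7 days.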
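Throughout, for viability, T/C: 100% = DMSO vehicle control viability.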

Row | SMILES | IC50 [1] | IC50 [2] | IC50 [3] | IC50 [4] | viability, T/C [6] | viability, T/C [7] | viability, T/C [8] | viability, T/C [9] | viability, T/C [10] | viability, T/C [11] | viability, T/C [12] | viability, T/C [13] | viability, T/C [14] | viability, T/C [15] | viability, T/C [16] | viability, T/C [17] | viability, T/C [18] | viability, T/C [19] | viability, T/C [20] | viability, T/C [21] | further results
1 | CC(=O)OC12COC1CC(O)C1(C)C(=O)C(O)C3=C(C)C(OC(=O)C(O)C(NC(=O)OC(C)(C)C)c4ccccc4)CC(O)(C(OC(=O)c4ccccc4)C21)C3(C)C (stereo unspecified) + CC1OCC2(CCN(c3cnc(Sc4ccnc(N)c4Cl)c(N)n3)CC2)C1N | < 10 nM | < 10 nM | < 10 nM | < 10 nM | 25.6% | 25.5% | 21.7% | 27% | 27.7% | 23.9% | 21.3% | 19.8% | 23% | 23.5% | 33.5% | 31.2% | 32.4% | 37.2% | 39.7% | 16.3% | IC50 [5]: < 10 nM; viability, T/C (second compound 0.1 µM, first compound 0.01 µM): 26.3%; viability, T/C (second compound 0.316 µM, first compound 0.01 µM): 23.8%; viability, T/C (second compound 1 µM, first compound 0.01 µM): 34.2%; viability, T/C (second compound 3.16 µM, first compound 0.01 µM): 16.9%; viability, T/C [22]: 14.8%; viability, T/C [23]: 14.1%; viability, T/C [24]: 15.2%; viability, T/C [25]: 17.2%; viability, T/C (second compound 10 µM, first compound 0.01 µM): 18.1%; viability, T/C [26]: 16.5%; viability, T/C [27]: 15.9%; viability, T/C [28]: 12.3%; viability, T/C [29]: 13.9%; viability, T/C [30]: 16.7%
2 | CNCc1ccccc1-c1csc(C(C)Nc2nc(C)nc3cc(OC)c(OC)cc23)c1 (stereo unspecified) | – | – | – | – | – | – | – | – | – | – | – | – | – | – | – | – | – | – | – | – | viability, T/C (compound 0.316 µM): 89.6% [middle of 16 runs]; viability, T/C (compound 1 µM): 89.2% [middle of 16 runs]; IC50 (compound alone, run of 08/26/2021): 5.39 µM [middle of 4 runs]; IC50 (compound alone, run of 09/02/2021): 4.96 µM [middle of 6 runs]
3 | CC1(C)CCC(CN2CCN(c3ccc(C(=O)NS(=O)(=O)c4ccc(NCC5CCOCC5)c([N+](=O)[O-])c4)c(Oc4cnc5[nH]ccc5c4)c3)CC2)=C(c2ccc(Cl)cc2)C1 + C=CC(=O)N1CCN(c2nc(OCC3CCCN3C)nc3c2CCN(c2cccc4cccc(C)c24)C3)CC1CC#N | 1360 nM | 1120 nM | 1030 nM | < 31.6 nM | 68.2% | 67.1% | 60.1% | 67.6% | 7.16% | 59.6% | 61.6% | 61.6% | 54.9% | 3.92% | 62.1% | 61.9% | 55.6% | 51.2% | 2.41% | 7.81% | IC50 (curve of first compound, second compound 0.0316 µM): 1380 nM; viability, T/C (second compound 0.0316 µM, first compound 0.0316 µM): 65.2%; viability, T/C (second compound 0.0316 µM, first compound 0.1 µM): 69.2%; viability, T/C (second compound 0.0316 µM, first compound 0.316 µM): 67.2%; viability, T/C (second compound 0.0316 µM, first compound 1 µM): 66.6%; viability, T/C (second compound 0.0316 µM, first compound 3.16 µM): 6.91%; viability, T/C (second compound 0.0316 µM, first compound 10 µM): 1.68%; viability, T/C [31]: 1.62%; viability, T/C [32]: 2.34%; viability, T/C [33]: 0.74%; viability, T/C [22]: 6.48%; viability, T/C [23]: 3.08%; viability, T/C [24]: 0.59%; viability, T/C [25]: 0.43%; viability, T/C [34]: 0.18%
4 | CC1OCC2(CCN(c3cnc(Sc4ccnc(N)c4Cl)c(N)n3)CC2)C1N (stereo unspecified) + COc1cc2nc(C)nc(NC(C)c3cc(N)cc(C(F)(F)F)c3)c2cc1OC1CCOC1 | 118 nM | 54.9 nM | < 31.6 nM | < 31.6 nM | 66.7% | 49.4% | 41.4% | 33% | 24.1% | 52.5% | 47.9% | 40.2% | 27.5% | 26.1% | 43.5% | 34.6% | 31.1% | 24.7% | 19.4% | 46.6% | IC50 [5]: < 31.6 nM; viability, T/C [31]: 21.1%; viability, T/C [32]: 19.1%; viability, T/C [33]: 20.6%; viability, T/C [22]: 33.7%; viability, T/C [23]: 29.6%; viability, T/C [24]: 17.7%; viability, T/C [25]: 13.8%; viability, T/C [34]: 16.9%; viability, T/C [26]: 49.2%; viability, T/C [27]: 35.6%; viability, T/C [28]: 17.5%; viability, T/C [29]: 12.9%; viability, T/C [30]: 11.5%; viability, T/C [35]: 11.4%
5 | COc1cc2nccc(Oc3ccc(NC(=O)C4(C(=O)Nc5ccc(F)cc5)CC4)cc3)c2cc1OC | – | – | – | – | – | – | – | – | – | – | – | – | – | – | – | – | – | – | – | – | viability, T/C (compound 0.0316 µM): 100% [middle of 5 runs]; viability, T/C (compound 0.1 µM): 104% [middle of 5 runs]; viability, T/C (compound 0.316 µM): 96.2% [middle of 5 runs]; viability, T/C (compound 1 µM): 104% (2×) and 101% (2×) and 99.7%; viability, T/C (compound 3.16 µM): 92.9% [middle of 5 runs]; viability, T/C (compound 10 µM): 87.7% [middle of 5 runs]; IC50 (curve of compound): > 10000 nM
6 | CC1OCC2(CCN(c3cnc(Sc4ccnc(N)c4Cl)c(N)n3)CC2)C1N (stereo unspecified) + C=CC(=O)N1CCN(c2nc(=O)n(-c3c(C)ccnc3C(C)C)c3nc(-c4c(O)cccc4F)c(F)cc23)C(C)C1 | < 31.6 nM | < 31.6 nM | < 31.6 nM | < 31.6 nM | 41.2% | 31.8% | 25% | 15.9% | 11.1% | 39.1% | 29.8% | 22.5% | 19% | 10.7% | 46.9% | 30.2% | 24.1% | 17.6% | 15% | 45.2% | IC50 [5]: < 31.6 nM; viability, T/C [31]: 12%; viability, T/C [32]: 11.6%; viability, T/C [33]: 12.1%; viability, T/C [22]: 38.7%; viability, T/C [23]: 26.9%; viability, T/C [24]: 17.2%; viability, T/C [25]: 15.8%; viability, T/C [34]: 13%; viability, T/C [26]: 33%; viability, T/C [27]: 29.1%; viability, T/C [28]: 19.4%; viability, T/C [29]: 16.4%; viability, T/C [30]: 11.5%; viability, T/C [35]: 12.1%
